{"source": "paper PMC9143821", "about": "“Design and Synthesis of a Novel 4-aryl-N-(2-alkoxythieno [2,3-b]pyrazine-3-yl)-4-arylpiperazine-1-carboxamide DGG200064 Showed Therapeutic Effect on Colon Cancer through G2/M Arrest” (Pharmaceuticals, 2022)", "key": {"Permeability": {"experiment": "Permeability", "assay_type": "in vitro ADME", "text": "(§1) Table 4 Physicochemical Properties of the Lead Compounds 7c. | column: 7c"}, "HCT116 and DLD1 cells": {"tested_on": "HCT116 and DLD1 cells", "experiment": "Immunoblotting of cell cycle and FBXW7 substrate proteins", "assay_type": "cell-based, human", "conditions": "6 h", "method": "HCT116 and DLD1 cells were exposed to increasing concentrations of DGG200064 (0, 10, 50, 100 nM) for 6 h. […] Moreover, there were increased levels of c-Jun by DGG200064 (50 nM) treatment in other 6-colon cancer cells (Figure S1, Supplementary Materials). c-Jun is a component of the transcription factor activator protein 1 (AP-1), which is activated by a variety of extracellular stimuli, such as growth factors and UV irradiation. In cancer cells, activation of c-Jun promotes down-stream target gene transcription, and it is involved in cell proliferation, growth, division, and apoptosis. […] To test whether DGG200064 could induce G2/M cell cycle arrest through the increasing of c-Jun level, the two genes were silenced using c-Jun siRNAs and treated with DGG200064 in HCT116 and DLD1 cells (Figure 3c). When c-Jun was silenced, the amount of cyclin B protein treated by DGG200064 decreased. […]\nThe whole-cell lysate was prepared using Radioimmunoprecipitation assay buffer (RIPA buffer) prepared in 50 mM Tris-HCl, pH 8.0, with 150 mM sodium chloride, 1.0% Igepal CA-630 (NP-40), 0.5% sodium deoxycholate, 0.1% sodium dodecyl sulfate, protease inhibitor cocktail, and phosphatase inhibitor cocktail. […] Membranes were washed five times with TBST, and chemiluminescence was detected using Westsave™ (Abfrontier, Seoul, Korea). […]"}, "logP determination": {"experiment": "logP determination", "assay_type": "physicochemical", "text": "as §1"}, "pKa determination": {"experiment": "pKa determination", "assay_type": "physicochemical", "text": "as §1"}, "[1]": {"experiment": "Pharmacokinetics in ICR mice", "assay_type": "in vivo", "conditions": "mouse, plasma, 5 mg/kg"}, "HCT116 cells": {"tested_on": "HCT116 cells", "experiment": "FACS analysis of cell cycle distribution", "assay_type": "cell-based, human", "conditions": "HCT116, different concentrations, 6 h", "method": "Many anticancer drugs induce apoptosis through programmed signaling in tumor cells. To test whether the newly developed 4-phenyl-N-(thieno[2,3-b]pyrazin-3-yl)piperazine-1-carboxamide derivatives could induce apoptosis, we conducted a FACS analysis of HCT116 cells with the representative compound 7c or DGG200064. Cell cycle distribution of HCT116 cells was investigated with different concentrations of DGG200064 for 6 h. […] Additionally, DGG200064 was tested for induced G2/M arrest in the other types of colon cancer cells in concentrations of 50 nM for 6 h (Figure 2b).\nA colon cancer cells were trypsinized and fixed in 70% (vol/vol) ethanol for DNA staining. For cell cycle analysis, fixed cells were washed with PBS and subsequently resuspended in Propidium Iodide (PI)/RNase staining solution (0.05 mg/mL PI, 0.1 mg/mL RNase A in PBS). FACS analysis was performed using FACSCanto II (BD Biosciences, San Jose, CA, USA)."}, "[2]": {"experiment": "Pharmacokinetics in SD rats", "assay_type": "in vivo", "conditions": "male, Sprague-Dawley, rat, plasma", "method": "Sprague–Dawley rats (adult males, 250–300 g) were fasted overnight, and the femoral vein (for iv administration of the compound) and jugular vein (for blood sampling) of each rat were cannulated with polyethylene tubing. The selected compounds dissolved in 30% polyethylene glycol (PEG) in saline were administered either intravenously or orally. At various time points after administration, blood samples (0.5 mL) were collected from the jugular vein, transferred to heparin-coated tubes, centrifuged to separate off the plasma. The plasma was stored at −80 °C until assayed. Compound concentrations in plasma were determined by LC/MS/MS analysis (API4000 mass spectrometer, Applied Biosystem, Waltham, MA, USA). Pharmacokinetic parameters were analyzed using the WinNonlin software program. The area under the curve (AUC) was calculated using the trapezoidal rule extrapolated to infinity. The terminal elimination half-life, systemic clearance, and volume of distribution at steady state were determined. The extent of absolute oral bioavailability (F) was estimated by comparing the AUC values after intravenous and oral administration of the compounds."}}}
{"molecule": "COc1cc(OC)cc(N2CCN(C(=O)Nc3nc4sccc4nc3OC)CC2)c1", "note": "[Compound 7c, 4-(3,5-Dimethoxyphenyl)-N-(2-methoxythieno[2,3-b]pyrazin-3-yl)piperazine-1-carboxamide]", "values": [{"measurement": "Permeability Class", "setting": "Permeability", "value": "High"}, {"measurement": "Papp", "setting": "Permeability; PAMPA, read-out: Permeability Pe", "value": 29.5, "unit": "×10⁻⁶ cm/s"}, {"measurement": "cyclin E and c-Myc levels", "setting": "HCT116 and DLD1 cells; HCT116, 0, 10, 50, 100 nM", "value": "not affected"}, {"measurement": "cyclin B1, c-Jun and p-c-Jun levels", "setting": "HCT116 and DLD1 cells; HCT116 and DLD1, 0, 10, 50, 100 nM", "value": "dose-dependent increase"}, {"measurement": "logP", "setting": "logP determination", "value": 2.63}, {"measurement": "pKa", "setting": "pKa determination; first of two values", "value": 2.39}, {"measurement": "pKa", "setting": "pKa determination; second of two values", "value": 11.6}, {"measurement": "AUC(0-inf)", "setting": "[1]; IV", "value": 16600, "unit": "ng·h/mL"}, {"measurement": "AUC(0-t)", "setting": "[1]; IV", "value": 16400, "unit": "ng·h/mL"}, {"measurement": "clearance", "setting": "[1]; IV", "value": 5.08, "unit": "mL/min/kg"}, {"measurement": "half-life", "setting": "[1]; IV", "value": 179, "unit": "min"}, {"measurement": "AUC(0-inf)", "setting": "[1]; PO", "value": 2340, "unit": "ng·h/mL"}, {"measurement": "AUC(0-t)", "setting": "[1]; PO", "value": 2260, "unit": "ng·h/mL"}, {"measurement": "Cmax", "setting": "[1]; PO", "value": 798, "unit": "ng/mL"}, {"measurement": "Tmax", "setting": "[1]; PO", "value": 40, "unit": "min"}, {"measurement": "bioavailability", "setting": "[1]; PO", "value": 13.8, "unit": "%"}, {"measurement": "half-life", "setting": "[1]; PO", "value": 312, "unit": "min"}, {"measurement": "G2/M arrest", "setting": "HCT116 cells", "value": "induced G/2M arrest in a dose-dependent manner"}, {"measurement": "apoptosis", "setting": "HCT116 cells", "value": "did not cause apoptosis"}, {"measurement": "AUC(0-inf)", "setting": "[2]; SD rats, IV, 1 mg/kg", "value": 708, "unit": "ng·h/mL"}, {"measurement": "AUC(0-t)", "setting": "[2]; SD rats, IV, 1 mg/kg", "value": 703, "unit": "ng·h/mL"}, {"measurement": "Cmax", "setting": "[2]; SD rats, IV, 1 mg/kg", "value": 551, "unit": "ng/mL"}, {"measurement": "Tmax", "setting": "[2]; SD rats, IV, 1 mg/kg", "value": 0.083, "unit": "h"}, {"measurement": "clearance", "setting": "[2]; SD rats, IV, 1 mg/kg", "value": 25.2, "unit": "mL/min/kg"}, {"measurement": "half-life", "setting": "[2]; SD rats, IV, 1 mg/kg", "value": 66.6, "unit": "min"}, {"measurement": "Vd", "setting": "[2]; SD rats, IV, 1 mg/kg, read-out: Vss", "value": 2.31, "unit": "L/kg"}, {"measurement": "AUC(0-inf)", "setting": "[2]; SD rats, PO, 5 mg/kg", "value": 964, "unit": "ng·h/mL"}, {"measurement": "AUC(0-t)", "setting": "[2]; SD rats, PO, 5 mg/kg", "value": 707, "unit": "ng·h/mL"}, {"measurement": "Cmax", "setting": "[2]; SD rats, PO, 5 mg/kg", "value": 76, "unit": "ng/mL"}, {"measurement": "Tmax", "setting": "[2]; SD rats, PO, 5 mg/kg", "value": 4.05, "unit": "h"}, {"measurement": "half-life", "setting": "[2]; SD rats, PO, 5 mg/kg", "value": 450, "unit": "min"}, {"measurement": "bioavailability", "setting": "[2]; SD rats, PO, 5 mg/kg, read-out: F", "value": 20.1, "unit": "%"}, {"measurement": "Cmax", "setting": "[2]; no unit, species or route stated in b12 (7c value equals SD rats PO of Table 3)", "value": 76, "unit": "ng/mL"}, {"measurement": "bioavailability", "setting": "[2]; species and route not stated in b12 (7c value equals SD rats PO of Table 3), read-out: bioavailability (F)", "value": 20.1, "unit": "%"}]}
